This is an account of results in patent US11254688B2 (Boehringer Ingelheim International GmbH, priority 2018, dated 2022).

Molecules are shown by their SMILES. pIC50: −log10 of the molar value. Where a name gives a salt, the structure may show the parent alone.

The target of the assay is T1, hGOAT (Homo sapiens, UniProt Q96T53).
T1 construct: expressed in transfected cells; host or cells: HEK293 (Hek293 hGOAT/PPGhrl Clone #1B8)
T1 sequence (Q96T53 1-435): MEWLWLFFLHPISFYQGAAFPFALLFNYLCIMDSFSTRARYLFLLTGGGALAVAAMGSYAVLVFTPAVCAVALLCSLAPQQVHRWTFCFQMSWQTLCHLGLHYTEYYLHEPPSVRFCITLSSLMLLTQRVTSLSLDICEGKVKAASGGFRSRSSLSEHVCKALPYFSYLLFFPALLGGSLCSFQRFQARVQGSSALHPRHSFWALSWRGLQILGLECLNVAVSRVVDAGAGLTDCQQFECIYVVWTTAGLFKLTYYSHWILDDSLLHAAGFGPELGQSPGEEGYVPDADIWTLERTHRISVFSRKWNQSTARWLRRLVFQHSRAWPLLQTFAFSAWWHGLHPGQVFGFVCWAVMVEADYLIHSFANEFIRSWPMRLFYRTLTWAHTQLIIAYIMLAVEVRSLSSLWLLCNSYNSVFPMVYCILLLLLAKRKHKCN
Nature of the assay: Determination of hGOAT activity in HEK293 cells after incubation with test compound (acyl-ghrelin ELISA). As to conditions: HEK293 cells stably transfected with preproghrelin and human GOAT; octanoate-BSA 100 μM; 5 hours incubation; acyl-ghrelin in medium by ELISA; 8 compound concentrations. The assay is classed as cell-based.
In the case of `Cc1nc2nonc2c(N)c1Cc1ccc(Cl)c(C(=O)N(C)C)c1` [Compound 15.5, 5-({7-Amino-5-methyl-[1,2,5]oxadiazolo[3,4-b]pyridin-6-yl}methyl)-2-chloro-N,N-dimethylbenzamide], the negative-log IC50 (pIC50) (in general, the negative decadic logarithm of the IC50, by convention in mol/L) is 9.32.
Then `Cc1nc2nonc2c(N)c1Cc1ccc(C(F)(F)F)c(C(=O)N(C)C)c1` [Compound 15.6, 5-({7-Amino-5-methyl-[1,2,5]oxadiazolo[3,4-b]pyridin-6-yl}methyl)-N,N-dimethyl-2-(trifluoromethyl)benzamide], with 8.90.
In the case of `Cc1nc2nonc2c(N)c1Cc1ccc(OC(F)(F)F)c(C#N)c1` [Compound 16.1, 5-({7-Amino-5-methyl-[1,2,5]oxadiazolo[3,4-b]pyridin-6-yl}methyl)-2-(trifluoromethoxy)benzonitrile], the negative-log IC50 (pIC50) is 9.59.
Then `Cc1nc2nonc2c(N)c1Cc1ccc(CO)cc1` [Compound 17.1, [4-({7-Amino-5-methyl-[1,2,5]oxadiazolo[3,4-b]pyridin-6-yl}methyl)phenyl]methanol], with 9.14; and `Cc1nc2nonc2c(N)c1Cc1ccc(C(F)F)cc1` [Compound 17.2, 6-{[4-(difluoromethyl)phenyl]methyl}-5-methyl-[1,2,5]oxadiazolo[3,4-b]pyridin-7-amine], with 9.77; and `Cc1nc2nonc2c(N)c1Cc1ccc([S+](C)[O-])cc1` (stereo not drawn) [Compound 18.1, 6-[(4-Methanesulfinylphenyl)methyl]-5-methyl-[1,2,5]oxadiazolo[3,4-b]pyridin-7-amine], with 9.04.
In the case of `Cc1nc2nonc2c(N)c1Cc1ccc(C2(C(N)=O)CC2)nc1` [Compound 19.1, 1-[5-({7-Amino-5-methyl-[1,2,5]oxadiazolo[3,4-b]pyridin-6-yl}methyl)pyridin-2-yl]cyclopropane-1-carboxamide] it was 8.34; in that of `Cc1nc2nonc2c(N)c1Cc1ccc(C2(C(=O)O)CC2)nc1` [Compound 19.2, 1-[5-({7-Amino-5-methyl-[1,2,5]oxadiazolo[3,4-b]pyridin-6-yl}methyl)pyridin-2-yl]cyclopropane-1-carboxylic Acid], 8.07; in that of `Cc1nc2nonc2c(N)c1Cc1ccc(C(C)(C)C(N)=O)nc1` [Compound 19.3, 2-[5-({7-Amino-5-methyl-[1,2,5]oxadiazolo[3,4-b]pyridin-6-yl}methyl)pyridin-2-yl]-2-methylpropanamide], 9.26.
Then `Cc1nc2nonc2c(N)c1Cc1ccc(C(C)(C)C(=O)O)nc1` [Compound 19.4, 2-[5-({7-Amino-5-methyl-[1,2,5]oxadiazolo[3,4-b]pyridin-6-yl}methyl)pyridin-2-yl]-2-methylpropanoic Acid], with 9.27; and `Cc1nc2nonc2c(N)c1Cc1ccc(Br)c(C(N)=O)c1` [Compound 19.5, 5-({7-Amino-5-methyl-[1,2,5]oxadiazolo[3,4-b]pyridin-6-yl}methyl)-2-bromobenzamide], with 8.65; and `Cc1nc2nonc2c(N)c1Cc1ccc(F)c(C(N)=O)c1` [Compound 19.6, 5-({7-Amino-5-methyl-[1,2,5]oxadiazolo[3,4-b]pyridin-6-yl}methyl)-2-fluorobenzamide], with 8.69.
Regarding `Cc1nc2nonc2c(N)c1Cc1ccc(C(F)(F)F)c(C(N)=O)c1` [Compound 19.7, 5-({7-Amino-5-methyl-[1,2,5]oxadiazolo[3,4-b]pyridin-6-yl}methyl)-2-(trifluoromethyl) benzamide], the negative logarithm of the IC50 (pIC50) is 8.10.
In the case of `Cc1nc2nonc2c(N)c1Cc1ccc(-n2cc(C#N)cn2)nc1` [Compound 20.1, 1-[5-({7-Amino-5-methyl-[1,2,5]oxadiazolo[3,4-b]pyridin-6-yl}methyl)pyridin-2-yl]-1H-pyrazole-4-carbonitrile Trifluoro-Acetic Acid Salt] it was 8.33.
Then `Cc1nc2nonc2c(N)c1Cc1ccc(-n2cccn2)nc1` [Compound 20.2, 5-Methyl-6-{[6-(1H-pyrazol-1-yl)pyridin-3-yl]methyl}-[1,2,5]oxadiazolo[3,4-b]pyridin-7-amine Trifluoro-Acetic Acid Salt], with 8.49.
